The source of these data is patent US10383823B2 (Mallinckrodt LLC, priority 2013, dated 2019).

The test system of data set [1] is A427 human NSCLC xenografts. Particulars: single treatment, 14 days post injection, equivalent cisplatin levels.
For data set [2] the following is noted: mouse KB tumor model.
Another data set concerns KB tumors. It counts as in vivo. To be noted: KB tumored nude mice, dosed at 8 mg/kg cisplatin.

For `N.N.[Cl][Pt][Cl]` [Cisplatin, (SP-4-2)-diamminedichloridoplatinum (II)], the tumor growth inhibition in data set [1] stood at 30%. The “maximum tolerated dose (MTD)” value in data set [2] is reported as “less than 10 mg/kg”. The “peak tumor DNA/Pt adduct” value in the data set on KB tumors is listed as “less than 10 pg of Pt/μg of DNA”.
